The source of these data is patent publication US10301299B2, “Glycosidase inhibitors” (Merck Patent GmbH, priority 2013, dated 2019).

For assay [1], the system named is B35 rat neuroblastoma cells. The experiment in a line: Cellular O-GlcNAcylation assay (tau O-GlcNAc S400, ICC). It is filed as cell-based. The following applies: Neuroblastoma cell, 16 h, tau O-GlcNAcylated at serine 400. How it is done: The following day cells were treated with appropriate concentration of a solution of inhibitor for 16 h at 37° C. in 5% CO2. Cells were fixed in 100 μl 4% paraformaldehyde for 15 min at room temperature, followed by three washes in PBS buffer. The cells were then permeabilized with 0.1% Triton X-100 for 60 min at room temperature. After three washes in PBS the cells were blocked with 10% goat serum containing 1% BSA in PBS buffer for two hours at room temperature. The cells were then incubated with a monoclonal rabbit antibody specific for tau O-GlcNAcylated at serine 400 (Epitomics) at a 1:1000 dilution overnight at 4° C. […] To calculate an EC50 the total peak intensity was plotted against the concentration of inhibitor to produce a sigmoidal dose response curve.

Assay [2] deals with T1, His-Tagged hOGA (Homo sapiens, UniProt O60502).
T1 sequence (O60502 1-916): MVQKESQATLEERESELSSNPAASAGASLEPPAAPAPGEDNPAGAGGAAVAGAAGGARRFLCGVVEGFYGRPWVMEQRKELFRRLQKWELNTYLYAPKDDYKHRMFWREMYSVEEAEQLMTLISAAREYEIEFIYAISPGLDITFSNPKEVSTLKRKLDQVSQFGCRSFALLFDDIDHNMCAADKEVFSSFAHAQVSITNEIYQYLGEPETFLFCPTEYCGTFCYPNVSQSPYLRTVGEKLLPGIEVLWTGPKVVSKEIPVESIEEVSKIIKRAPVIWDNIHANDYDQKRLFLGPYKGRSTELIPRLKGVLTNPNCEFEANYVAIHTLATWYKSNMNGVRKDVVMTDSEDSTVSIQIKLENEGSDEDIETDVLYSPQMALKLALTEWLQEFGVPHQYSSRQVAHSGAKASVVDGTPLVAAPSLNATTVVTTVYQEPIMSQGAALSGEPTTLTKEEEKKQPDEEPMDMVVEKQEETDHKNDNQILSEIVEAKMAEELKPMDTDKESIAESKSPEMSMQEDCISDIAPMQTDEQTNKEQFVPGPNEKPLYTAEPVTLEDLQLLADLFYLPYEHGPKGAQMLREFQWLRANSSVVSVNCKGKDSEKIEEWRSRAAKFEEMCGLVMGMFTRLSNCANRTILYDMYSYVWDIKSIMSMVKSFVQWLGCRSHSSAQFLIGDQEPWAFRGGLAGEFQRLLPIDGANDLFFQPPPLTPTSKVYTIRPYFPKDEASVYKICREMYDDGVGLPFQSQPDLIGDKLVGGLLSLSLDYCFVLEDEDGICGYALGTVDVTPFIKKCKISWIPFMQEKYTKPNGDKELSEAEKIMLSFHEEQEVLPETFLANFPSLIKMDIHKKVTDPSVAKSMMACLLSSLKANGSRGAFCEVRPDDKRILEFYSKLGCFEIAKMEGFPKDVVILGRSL
The experiment in a line: Human O-GlcNAcase enzyme inhibition assay. Format: biochemical. How it is done: The following reaction components were added to a final volume of 10 μL in Mcllvaine's Buffer (pH 6.5): 20 nM His-Tagged hOGA and 10 μM Fluorescein mono-beta-D-(2-deoxy-2-N-acetyl) glucopyranoside (FL-GlcNAc; Marker Gene Technologies Inc, Part # M1485). […] The amount of fluorescence measured was plotted against the concentration of inhibitor to produce a sigmoidal dose response curve, from which an IC50 was calculated.

[3] abbreviates: 20 nM His-Tagged hOGA, 10 μM FL-GlcNAc, pH 6.5, 60 min, read-out: hOGA enzyme inhibition (IC50).

Where two headings read alike, the source gives them in different places.

With `COc1ccc(C2CCN(Cc3cnc(NC(C)=O)s3)CC2)cc1` [Compound 16, N-(5-((4-(4-methoxyphenyl)piperidin-1-yl)methyl)thiazol-2-yl)acetamide], in assay [1], the half-maximal effective concentration (EC50) lay in the range of 1000 to 10000 nM. For the same molecule, the IC50 in assay [2] (setting [3]) was < 200 nM.
In assay [1], `CC(=O)Nc1ncc(CN2CCN(c3ccccc3)CC2)s1` [Compound 19, N-[5-(4-phenyl-piperazin-1-ylmethyl)-thiazol-2-yl]-acetamide] displayed an EC50 of 1000 to 10000 nM. Besides, the IC50 in assay [2] (setting [3]) lay in the range of 200 to 1000 nM.
The molecule `CC(=O)Nc1ncc(CNCCCc2ccccc2)s1` [Compound 20, N-{5-[(3-phenyl-propylamino)-methyl]-thiazol-2-yl}-acetamide] showed a 50% effective concentration (EC50) in assay [1] of 1000 to 10000 nM. Besides, the IC50 in assay [2] (setting [3]) fell in the range of 200 to 1000 nM.
As to `CC(=O)Nc1ncc(CN(C)CCCc2ccccc2)s1` [Compound 21, N-(5-{[methyl-(3-phenyl-propyl)-amino]-methyl}-thiazol-2-yl)-acetamide], the concentration giving a half-maximal response (EC50) in assay [1] was 1000 to 10000 nM. In assay [2] (setting [3]), the half-inhibitory concentration (IC50) is < 200 nM.
In assay [1], `CC(=O)Nc1ncc(CN2CC(c3ccccc3)C2)s1` [Compound 22, N-[5-(3-phenyl-azetidin-1-ylmethyl)-thiazol-2-yl]-acetamide] gave a concentration for a half-maximal effect (EC50) of 1000 to 10000 nM. Also, the IC50 in assay [2] (setting [3]) fell in the range of 200 to 1000 nM.
As to `CC(=O)Nc1ncc(CN2CCCCC2)s1` [Compound 25, N-(5-piperidin-1-ylmethyl-thiazol-2-yl)-acetamide], the EC50 in assay [1] lay within 200 to 1000 nM. The IC50 in assay [2] (setting [3]) lay within 1000 to 10000 nM.
The like results for `CC(=O)Nc1ncc(CN2CCC(C(C)C)CC2)s1` [Compound 26, N-[5-(4-isopropylpiperidin-1-ylmethyl)thiazol-2-yl]-acetamide] were, in that order, 1000 to 10000 nM and < 200 nM.
`CC(=O)Nc1ncc(CN2CCC(C3CCCCC3)CC2)s1` [Compound 27, N-(5-((4-cyclohexylpiperidin-1-yl)methyl)thiazol-2-yl)acetamide]: in assay [1], the EC50 is < 200 nM. Besides, the half-maximal inhibitory concentration (IC50) in assay [2] (setting [3]) is < 200 nM.
On to `CC(=O)Nc1ncc(CN2CCC(Cc3ccccc3)CC2)s1` [Compound 28, N-(5-((4-benzylpiperidin-1-yl)methyl)thiazol-2-yl)acetamide], for which the half-maximal effective concentration (EC50) in assay [1] is < 200 nM. In assay [2], the IC50 was < 200 nM.
In turn, `CC(=O)Nc1ncc(CN2CCCC(c3ccccc3)C2)s1` (stereo not drawn) [Compound 29, N-(5-((3-phenylpiperidin-1-yl)methyl)thiazol-2-yl)acetamide] gave a 50% effective concentration (EC50) in assay [1] of 1000 to 10000 nM. In assay [2] (setting [3]), the 50% inhibitory concentration (IC50) is < 200 nM.
In assay [1], `CC(=O)Nc1ncc(CN2CCC(c3ccccc3F)CC2)s1` [Compound 30, N-(5-((4-(2-fluorophenyl)piperidin-1-yl)methyl)thiazol-2-yl)acetamide] had an EC50 of 200 to 1000 nM. Further, the IC50 in assay [2] (setting [3]) was in the range of 200 to 1000 nM.
For `CC(=O)Nc1ncc(CN2CCC(c3cccc(C)c3)CC2)s1` [Compound 31, N-(5-((4-(m-tolyl)piperidin-1-yl)methyl)thiazol-2-yl)acetamide], in assay [1], the half-maximal effective concentration (EC50) was < 200 nM. The half-inhibitory concentration (IC50) in assay [2] (setting [3]) was < 200 nM.
Consider `COc1cccc(C2CCN(Cc3cnc(NC(C)=O)s3)CC2)c1` [Compound 32, N-(5-((4-(3-methoxyphenyl)piperidin-1-yl)methyl)thiazol-2-yl)acetamide], for which the half-maximal effective concentration (EC50) in assay [1] is 200 to 1000 nM. Moreover, the concentration for half-maximal inhibition (IC50) in assay [2] (setting [3]) was < 200 nM.
For `COc1ccccc1C1CCN(Cc2cnc(NC(C)=O)s2)CC1` [Compound 33, N-(5-((4-(2-methoxyphenyl)piperidin-1-yl)methyl)thiazol-2-yl)acetamide], in assay [1], the half-maximal effective concentration (EC50) was in the range of 200 to 1000 nM. Also, the IC50 in assay [2] (setting [3]) fell in the range of 200 to 1000 nM.
In the case of `CC(=O)Nc1ncc(CN2CCC(c3ccccc3C#N)CC2)s1` [Compound 35, N-(5-((4-(2-cyanophenyl)piperidin-1-yl)methyl)thiazol-2-yl)acetamide], the EC50 in assay [1] lay within 200 to 1000 nM. Further, in assay [2] (setting [3]), the IC50 is 1000 to 10000 nM.
In assay [1], `CC(=O)Nc1ncc(CN2CCC(c3ccc(C#N)cc3)CC2)s1` [Compound 36, N-(5-((4-(4-cyanophenyl)piperidin-1-yl)methyl)thiazol-2-yl)acetamide] showed an EC50 of 200 to 1000 nM. Also, the IC50 in assay [2] (setting [3]) fell in the range of 200 to 1000 nM.
Take `CC(=O)Nc1ncc(CN2CCC(c3ccccc3O)CC2)s1` [Compound 37, N-(5-((4-(2-hydroxyphenyl)piperidin-1-yl)methyl)thiazol-2-yl)acetamide]: the EC50 in assay [1] is < 200 nM. For the same molecule, the IC50 in assay [2] (setting [3]) was 200 to 1000 nM.
`CC(=O)Nc1ncc(CN2CCC(c3ccc(O)cc3)CC2)s1` [Compound 38, N-(5-((4-(4-hydroxyphenyl)piperidin-1-yl)methyl)thiazol-2-yl)acetamide] returned a half-maximal effective concentration (EC50) in assay [1] of 200 to 1000 nM. Also, in assay [2] (setting [3]), the half-inhibitory concentration (IC50) is < 200 nM.
Take `CC(=O)Nc1ncc(CN2CCC(c3cccc(O)c3)CC2)s1` [Compound 39, N-(5-((4-(3-hydroxyphenyl)piperidin-1-yl)methyl)thiazol-2-yl)acetamide]: in assay [1], the concentration giving a half-maximal response (EC50) was 200 to 1000 nM. Also, in assay [2] (setting [3]), the IC50 was in the range of 200 to 1000 nM.
The molecule `CC(=O)Nc1ncc(C(C)N2CCC(c3ccccc3)CC2)s1` (stereo not drawn) [Compound 40, N-(5-(1-(4-phenylpiperidin-1-yl)ethyl)thiazol-2-yl)acetamide] came in with an EC50 in assay [1] of 200 to 1000 nM. The concentration for half-maximal inhibition (IC50) in assay [2] (setting [3]) is 200 to 1000 nM.
In assay [1], `CC(=O)Nc1ncc(CN2CCC(F)(c3ccccc3)CC2)s1` [Compound 41, N-[5-(4-fluoro-4-phenyl-piperidin-1-ylmethyl)-thiazol-2-yl]-acetamide] came in with an EC50 of 1000 to 10000 nM. Moreover, in assay [2] (setting [3]), the IC50 was 1000 to 10000 nM.
Turning to `CC(=O)Nc1ncc(CN2CCC(c3ccc(F)cc3)CC2)s1` [Compound 42, N-(5-((4-(4-fluorophenyl)piperidin-1-yl)methyl)thiazol-2-yl)acetamide], the EC50 in assay [1] was in the range of 200 to 1000 nM. Moreover, in assay [2] (setting [3]), the IC50 fell in the range of 200 to 1000 nM.
For `CC(=O)Nc1ncc(CN2CCC(c3ccccc3C)CC2)s1` [Compound 43, N-(5-((4-(o-tolyl)piperidin-1-yl)methyl)thiazol-2-yl)acetamide], in assay [1], the 50% effective concentration (EC50) fell in the range of 200 to 1000 nM. In assay [2] (setting [3]), the 50% inhibitory concentration (IC50) is 1000 to 10000 nM.
The like results for `CC(=O)Nc1ncc(CN2CCC(c3ccc(C(=O)O)cc3)CC2)s1` [Compound 45, 4-(1-((2-acetamidothiazol-5-yl)methyl)piperidin-4-yl)benzoic acid] were, in that order, 1000 to 10000 nM and 200 to 1000 nM.

For orientation: EC50 means the concentration needed to bring the measured effect to its halfway point. The IC50 is the point on the concentration scale where inhibition reaches its midpoint.
